{"source": "patent US20240398767A1", "about": "“INHIBITORS OF THE MTDH-SND1 PROTEIN COMPLEX FOR CANCER THERAPY” (The Trustees of Princeton University, priority 2021, published 2024)", "key": {"SCP28 xenograft tumor": {"system": "SCP28 xenograft tumor", "assay": "SCP28 xenograft tumor model in NSG mice", "type": "in vivo", "conditions": "8 weeks treatment", "experimental": "FIG. 13A, NGS female mice injected with 2 k SCP28 cells orthotopically were subjected to vehicle or C26-A6 treatment after two weeks. Primary tumor volumes were measured.\nFIG. 13B, 8 weeks after treatment, tumor mass was assessed. Vehicle, n=10 mice; C26-A6, n=10 mice. Size bar, 2 cm.\nFIG. 13C, 8 weeks after treatment, lung metastasis was assessed. Vehicle, n=10 mice; C26-A6, n=10 mice. Size bar, 5 mm."}, "[1]": {"system": "PyMT tumors with MTDH KO or SND1 KD", "assay": "PyMT tumor models with MTDH KO or SND1 KD in FVB mice", "type": "in vivo, FVB female mice", "conditions": "6 weeks treatment", "experimental": "FIG. 5G, 10 k of the cells of FIG. 5F were inoculated into FVB female mice and treated with or without C26-A6 after primary tumors reached to approximately 2 mm in diameter. 6 weeks after treatment, tumor size was determined. Vehicle, n=10 mice; C26-A6, n=10 mice.\nFIG. 5H, 10 k of the cells of FIG. 5F were inoculated into FVB female mice and treated with or without C26-A6 after primary tumors reached to approximately 2 mm in diameter. 6 weeks after treatment, spontaneous lung metastasis was determined. The lung metastatic areas of the representative lungs were highlighted with red. Vehicle, n=10 mice; C26-A6, n=10 mice. Size bar, 5 mm.\nFIG. 5J, 10 k of the cells of FIG. 5I were injected into FVB females and treated similarly as in FIGS. 5G, 5H. Tumor size was assessed. Vehicle, n=10 mice; C26-A6, n=10 mice.\nFIG. 5K, 10 k of the cells of FIG. 5I were injected into FVB females and treated similarly as in FIGS. 5G, 5H. Lung metastasis was assessed. The lung metastatic areas of the representative lungs were highlighted with red. Vehicle, n=10 mice; C26-A6, n=10 mice. Size bar, 5 mm.\nNext, to further validate that the anti-tumor effect of C26-A6 depends on its on-target effects by disrupting MTDH-SND1 complex, PyMT; UBC-Cre^ERT+/−;Mtdh^fl/fl tumor cells with Mtdh depletion or with endogenous Snd1 KD were employed for the similar assay as in FIG. 5-1a. […]"}, "[2]": {"assay": "Toxicity in PyMT tumor-bearing FVB mice (body weight, ALT/AST, blood cell counts, small intestine)", "type": "in vivo", "conditions": "15 mg/kg i.v.", "experimental": "FIG. 12D, Body weight of the mice in experiment from FIG. 5B was measured. Vehicle, n=10 mice; C26-A6, n=12 mice.\nFIG. 12E, Serum from mice in experiment in FIG. 5B were collected for ALT and AST activity measurement following the standard protocol (Sigma). Three FVB females treated with 200 μl of 8% CCl4 in corn oil for 2 days served as positive control. Data represent mean±SEM. n=5 mice per group. Significance determined by one-way ANOVA analysis with Dunnett's test for multiple comparisons.\nFIG. 12F, Blood samples were drawn from the heart of mice in experiment FIG. 5B, and blood cell counts were performed with the Sysemx XN-3000 Hematology System (Sysmex America, Inc.) Data represent mean±SEM. Vehicle, n=6 mice; C26-A6, n=5 mice. Significance determined by two tailed Student's t-test.\nFIG. 12G, Small intestine samples were obtained from mice in experiment from FIG. 5B. H&E and Alcian blue staining was performed on processed, sliced samples. Scale bar: 200 μm.\nFIG. 12H, Quantification of Alcian blue staining results from (FIG. 12G). Data represent mean±SEM. n=12 fields from 5 mice in each group. Significance determined by two tailed Student's t-test."}, "PyMT tumor cells": {"system": "PyMT tumor cells", "assay": "Experimental lung metastasis, tail vein injection of PyMT tumor cells", "type": "in vivo, FVB mice", "conditions": "treatment from 3 days after injection, five weeks", "experimental": "FIG. 5L, 2 k PyMT tumor cells were injected into FVB females via tail-vein. 3 days after injection, the mice were treated with vehicle or C26-A6.\nFIG. 5M, 2 k PyMT tumor cells were injected into FVB females via tail-vein. 3 days after injection, the mice were treated with vehicle or C26-A6. 5 weeks later, lung metastatic nodules were counted. n=6 mice per group. Data represent mean±SEM.\nTo exclude the possibility that the lung metastasis reduction upon C26-A6 treatment was due to the smaller primary tumor, tail vein injection of PyMT tumor cells was performed to form experimental lung metastasis in FVB mice. Three days later, mice were divided randomly into two groups and treated with vehicle or C26-A6 respectively (FIG. 5L)."}, "[3]": {"system": "E0771-OVA Tap1/2 KD cells", "assay": "E0771-OVA Tap1/2 KD cells / OT-I splenocyte co-culture", "type": "cell-based, mouse", "excerpt": "For FIGS. 33B-33D, E0771-OVA cells with (shTap1/2) or without (shCtrl) Tap1/2 knockdown were co-cultured with OT-I splenocytes with the ratio of 1:10 (tumor cells:splenocytes). Data represent mean±SEM. n=3 independent experiments. Significance determined by one-way ANOVA analysis with Sidak's test for multiple comparisons.\nFIG. 33B, 24 hr after co-culture, tumor cells were collected for examining OVA (H-2K^b-SIINFEKL) expression.\nFIG. 33C, 24 hr after co-culture, tumor cells were collected for examining MHC-I expression.\nFIG. 33D, 24 hr after co-culture, splenocytes were collected for examining CD137 expression.\nFIG. 33E, The same co-culture experiment as in FIG. 33B were performed. The live tumor cells were indicated by luciferase signal. The percentage of live cells were determined as normalized to the non-co-culture control. Data represent mean±SEM. n=5 independent experiments. Significance determined by one-way ANOVA analysis with Sidak's test for multiple comparisons.\nMTDH-SND1 suppresses antigen presentation by reducing Tap1/2. To confirm that MTDH-SND1 drives immune evasion through suppressing the Tap1/2 pathway, antigen presentation-deficient cells were generated by knocking down Tap1/2^20. E0771-OVA cells were transduced with lentiviruses expressing Tap1/2-targeting shRNAs. […]"}}, "note": "Entries after “also recorded” stand apart in the source; their conditions may differ."}
{"smiles": "COc1ccc(Cl)cc1S(=O)(=O)Nc1cccn2nc(C)nc12", "note": "[Analog C26-A6]", "values": [{"measurement": "primary tumor growth and lung metastasis", "setting": "SCP28 xenograft tumor", "value": "confirmed"}, {"measurement": "tumor growth or metastasis", "setting": "[1]", "value": "did not further inhibit tumor growth or metastasis"}, {"measurement": "hematologic, GI tract, and liver toxicity / tolerability", "setting": "[2]", "value": "no significant hematologic, GI tract, and liver toxicity; also recorded: well-tolerated in vivo with minimal toxicity"}, {"measurement": "lung metastasis (metastatic nodules)", "setting": "PyMT tumor cells", "value": "significantly suppressed lung metastasis"}, {"measurement": "immune killing (live tumor cells)", "setting": "[3]", "value": "no boosting of immune killing"}, {"measurement": "antigen presentation and T cell activation", "setting": "[3]; 24 hr co-culture", "value": "no such change"}]}
